Results taken from patent publication US20150182550A1, “INHIBITORS OF THE INTERACTION OF THE SIGMA-1 RECEPTOR WITH hERG FOR USE IN THE TREATMENT OF CANCER” (CENTRE NATIONAL DE LA RECHERCHE SCIENTIFIQUE - CNRS, priority 2011, published 2015).

How the values were obtained:
hERG channels = assay: Whole-cell patch-clamp of hERG tail currents in K562 cells; conditions: 10 μM
Protocol: “Patch-clamp” electrophysiology experiments were carried out in the whole cell configuration. […] This protocol makes it possible to record transient inward currents, the amplitude of which correlates with the depolarization involved during the prepulses. […] (FIGS. 1A,B).
In order to verify a potential interaction between Sig1R and hERG, the effects of selective Sig1R ligands, i.e. igmesine and (+)pentazocine were analyzed with respect to the current. […] The effects of igmesine (10 μM) were then studied on I/V curves recorded at from −70 to 40 mV.
Patch-clamp experiments were then carried out in the K562 shRD and shSig1R cell lines in order to analyze the possible consequences of Sig1R silencing on the properties of hERG.

K562 cells = assay: Adhesion of K562 cells to fibronectin (FN); format: cell-based, human; conditions: for FN-dependent specific cell adhesion: wild-type K562 cells, 10 μM
Excerpt: FIGS. 8A-8B represents the inhibition of the adhesion of K562 cells to FN by igmesine, E-4031 and Sig1R silencing. […] The values represent the mean±standard error of 6 to 9 independent experiments. NS: not significant (Student's t test). […] The values represent the mean±standard error of 12 independent experiments. ***p<0.001 (Student's t test). In one experiment, each value is the mean of three distinct wells.
The role of the Sig1R/hERG interaction on integrin-dependent cell adhesion to the extracellular matrix (ECM) has been tested in vitro. The expression of a single integrin subtype, i.e. integrin α5β1, has been reported in K562 cells. This integrin has a high affinity for fibronectin (FN), a component of the extracellular matrix (ECM). […] In the wild-type cells, the hERG channel blocker (E-4031) and igmesine inhibited FN-dependent specific cell adhesion. […] Likewise, the Sigma ligands no longer have any effect on the adhesion of the shSig1R cells (not represented).

## CC(C)=CCN1CCC2(C)c3cc(O)ccc3CC1C2C (single isomer, unassigned; (+)) [(+)pentazocine]
hERG channels; K562 cells
  effect of extracellular application on hERG currents: reversibly inhibited
hERG channels; extracellular application, tail current at −120 mV, K562 cells
  hERG current reduced by: 21.19±1.77%

## Cc1cccc(CCN2CCC(C(=O)c3ccc(NS(C)(=O)=O)cc3)CC2)n1 [E-4031]
K562 cells
  FN-dependent specific cell adhesion: inhibited

## CCC(C/C=C/c1ccccc1)(c1ccccc1)N(C)CC1CC1 (stereo not shown) [igmesine]
hERG channels; human
  hERG current reduced by: 40.85±2.83%
  shift towards the left of the half-activation voltage value: ~10 mV
K562 cells; E4031+igmesine 10 μM each, K562 cells
  additive effect on adhesion to FN compared with E-4031 alone: did not produce an additive effect
K562 cells
  FN-dependent specific cell adhesion: inhibited
